# According to ChEMBL document CHEMBL4364273, “Discovery of SHR1653, a Highly Potent and Selective OTR Antagonist with Improved Blood-Brain Barrier Penetration” (ACS Med Chem Lett, 2019):
# Tests used:
# [1] = Plasma concentration in Sprague-Dawley rat by LC-MS/MS analysis; assay type: ADME, cell-free
# [2] = Tmax in Sprague-Dawley rat at 150 mg/kg, po measured for 24 hrs by LC-MS/MS analysis; assay type: ADME, organism-based; details: in vivo
# Rattus norvegicus [3] = experiment: Anti-premature ejaculation activity in anesthetized oxytocin-induced uterine contraction Sprague-Dawley rat model assessed as decrease in intraluminal uterine pressure administered orally for 20 mins and 1 hr later treated with oxytocin and measured for 15 to 30 mins relative to control; assay type: functional
# [4] = Safety index, ratio of NOAEL in rat to EC50 for inhibition of oxytocin-induced contractile response in po dosed Sprague-Dawley rat; assay type: toxicity, organism-based; details: in vivo
# [5] = Acute toxicity in rat assessed as increase in urinary output at 900 mg/kg measured for 7 days; assay type: organism-based; details: in vivo, 168 h
# [6] = AUC (0 to 24 hrs) in Sprague-Dawley rat at 30 mg/kg, po by LC-MS/MS analysis; assay type: ADME, organism-based; design: dose 30 mg/kg, time < 24 hr, route oral; details: in vivo
# [7] = Unbound fraction in Sprague-Dawley rat brain by LC-MS/MS analysis; assay type: ADME, tissue-based
# [8] = Acute toxicity in rat assessed as effect on body weight at up to 300 mg/kg measured for 7 days; assay type: organism-based; details: in vivo, 168 h
# Oxytocin receptor = target: T1, Oxytocin receptor (Homo sapiens, UniProt P30559); experiment: Antagonist activity at human OTR expressed in HEK293 cells assessed as decrease in calcium flux measured after 10 mins in […] by Fluo-4 dye based microplate reader based assay; assay type: functional, cell-based
# T1 sequence (P30559 whole entry): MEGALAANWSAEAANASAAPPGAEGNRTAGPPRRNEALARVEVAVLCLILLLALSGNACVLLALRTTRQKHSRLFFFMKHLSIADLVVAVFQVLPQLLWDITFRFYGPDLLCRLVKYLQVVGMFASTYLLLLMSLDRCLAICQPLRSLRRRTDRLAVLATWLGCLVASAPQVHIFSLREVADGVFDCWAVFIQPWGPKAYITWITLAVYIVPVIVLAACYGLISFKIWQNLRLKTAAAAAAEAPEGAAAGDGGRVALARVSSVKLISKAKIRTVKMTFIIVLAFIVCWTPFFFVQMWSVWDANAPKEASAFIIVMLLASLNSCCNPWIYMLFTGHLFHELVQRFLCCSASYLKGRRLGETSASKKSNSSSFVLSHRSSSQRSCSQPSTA
# Cytochrome P450 2C9 = Cytochrome P450 2C9 (Homo sapiens, UniProt P11712); experiment: Inhibition of human recombinant CYP2C9; assay type: ADME
# [9] = Acute toxicity in rat assessed as effect on hematological parameters up to 300 mg/kg measured for 7 days; assay type: organism-based; details: in vivo, 168 h
# Rattus norvegicus [10] = experiment: Anti-premature ejaculation activity in anesthetized oxytocin-induced uterine contraction Sprague-Dawley rat model assessed as decrease in intraluminal uterine pressure at 30 mg/kg, po treated for 20 mins and 1 hr later treated with oxytocin and measured for 15 to 30 mins relative to control; assay type: functional
# [11] = Tmax in Beagle dog at 2 mg/kg, po measured for 24 hrs by LC-MS/MS analysis; assay type: ADME, organism-based, Canis lupus familiaris; details: in vivo
# [12] = AUC (0 to 24 hrs) in Beagle dog at 2 mg/kg, po by LC-MS/MS analysis; assay type: ADME, organism-based, Canis lupus familiaris; design: time < 24 hr, dose 2 mg/kg, route oral; details: in vivo
# [13] = AUC (0 to 24 hrs) in Beagle dog at 20 mg/kg, po by LC-MS/MS analysis; assay type: ADME, organism-based, Canis lupus familiaris; design: time < 24 hr, dose 20 mg/kg, route oral; details: in vivo
# [14] = Lipophilicity, log D of compound at pH 7.4; assay type: physicochemical; details: buffer
# [15] = Clearance in Beagle dog at 1 mg/kg, iv measured for 24 hrs by LC-MS/MS analysis; assay type: ADME, organism-based, Canis lupus familiaris; details: in vivo
# Homo sapiens = species: Homo sapiens; experiment: Selectivity ratio of IC50 for human vasopressin V1B receptor expressed in HEK293 cells to IC50 for human OTR expressed in HEK293 cells; assay type: cell-based
# Cytochrome P450 1A2 = target: T2, Cytochrome P450 1A2 (Homo sapiens, UniProt P05177); experiment: Inhibition of human recombinant CYP1A2; assay type: ADME
# T2 sequence (P05177 whole entry): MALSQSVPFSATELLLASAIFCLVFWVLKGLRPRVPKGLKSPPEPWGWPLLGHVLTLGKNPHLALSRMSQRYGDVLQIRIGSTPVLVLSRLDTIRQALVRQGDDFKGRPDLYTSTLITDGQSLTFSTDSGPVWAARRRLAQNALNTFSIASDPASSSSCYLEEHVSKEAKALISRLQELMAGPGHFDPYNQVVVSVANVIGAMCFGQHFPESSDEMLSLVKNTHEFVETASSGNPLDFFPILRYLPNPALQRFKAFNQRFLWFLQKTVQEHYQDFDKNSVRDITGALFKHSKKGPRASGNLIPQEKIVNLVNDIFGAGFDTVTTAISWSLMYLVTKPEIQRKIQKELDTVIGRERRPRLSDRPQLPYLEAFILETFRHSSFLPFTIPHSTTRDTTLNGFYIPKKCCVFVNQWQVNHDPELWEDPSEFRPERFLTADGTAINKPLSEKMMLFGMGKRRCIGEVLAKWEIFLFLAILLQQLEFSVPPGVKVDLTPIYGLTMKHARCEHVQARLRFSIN
# [16] = Solubility of compound in FASSIF at pH 6.5; assay type: physicochemical
# [17] = Acute toxicity in rat; details: in vivo
# Cytochrome P450 2C19 = Cytochrome P450 2C19 (Homo sapiens, UniProt P33261); experiment: Inhibition of human recombinant CYP2C19; assay type: ADME
# [18] = Cmax in Sprague-Dawley rat at 30 mg/kg, po measured for 24 hrs by LC-MS/MS analysis; assay type: ADME, organism-based; design: dose 30 mg/kg, route oral; details: in vivo
# [19] = AUC (0 to 24 hrs) in Sprague-Dawley rat at 2 mg/kg, po by LC-MS/MS analysis; assay type: ADME, organism-based; design: time < 24 hr, dose 2 mg/kg, route oral; details: in vivo
# [20] = Hepatic clearance in dog liver microsomes by LC-MS/MS analysis; assay type: ADME, Canis lupus familiaris, Microsome
# [21] = Protein binding in human plasma; assay type: ADME, cell-free; details: read-out: PPB (converted)
# [22] = Half-life in Sprague-Dawley rat at 150 mg/kg, po measured for 24 hrs by LC-MS/MS analysis; assay type: ADME, organism-based; details: in vivo
# [23] = Acute toxicity in rat assessed as effect on clinical parameters up to 300 mg/kg measured for 7 days; assay type: organism-based; details: in vivo, 168 h
# Cytochrome P450 2D6 = Cytochrome P450 2D6 (Homo sapiens, UniProt P10635); experiment: Inhibition of human recombinant CYP2D6; assay type: ADME
# [24] = Tmax in nude mouse at 4 mg/kg, po measured for 24 hrs by LC-MS/MS analysis; assay type: ADME, organism-based; details: in vivo
# [25] = Half-life in Beagle dog at 20 mg/kg, po measured for 24 hrs by LC-MS/MS analysis; assay type: ADME, organism-based, Canis lupus familiaris; details: in vivo
# [26] = Cmax in Sprague-Dawley rat at 2 mg/kg, po measured for 24 hrs by LC-MS/MS analysis; assay type: ADME, organism-based; design: dose 2 mg/kg, route oral; details: in vivo
# [27] = Cmax in Beagle dog at 20 mg/kg, po measured for 24 hrs by LC-MS/MS analysis; assay type: ADME, organism-based, Canis lupus familiaris; design: dose 20 mg/kg, route oral; details: in vivo
# [28] = Half-life in Sprague-Dawley rat at 30 mg/kg, po measured for 24 hrs by LC-MS/MS analysis; assay type: ADME, organism-based; details: in vivo
# Cytochrome P450 3A4 = Cytochrome P450 3A4 (Homo sapiens, UniProt P08684); experiment: Inhibition of human recombinant CYP3A4 using midazolam as substrate; assay type: ADME
# [29] = Hepatic clearance in human liver microsomes by LC-MS/MS analysis; assay type: ADME, Microsome
# Sequence of Cytochrome P450 2C19 (P33261 whole entry): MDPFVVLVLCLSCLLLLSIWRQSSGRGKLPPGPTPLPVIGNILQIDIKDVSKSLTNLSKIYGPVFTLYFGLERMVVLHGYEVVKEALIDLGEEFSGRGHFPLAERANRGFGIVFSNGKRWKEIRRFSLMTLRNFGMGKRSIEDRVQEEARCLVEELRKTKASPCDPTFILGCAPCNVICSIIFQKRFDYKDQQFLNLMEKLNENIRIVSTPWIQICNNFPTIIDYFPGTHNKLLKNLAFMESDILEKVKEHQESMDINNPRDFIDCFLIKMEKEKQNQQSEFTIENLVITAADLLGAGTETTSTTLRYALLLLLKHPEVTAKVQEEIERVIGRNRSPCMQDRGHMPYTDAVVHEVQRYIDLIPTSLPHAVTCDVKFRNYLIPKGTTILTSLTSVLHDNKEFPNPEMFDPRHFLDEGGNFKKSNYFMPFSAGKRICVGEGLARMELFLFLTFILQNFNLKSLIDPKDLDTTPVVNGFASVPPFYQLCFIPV
# Sequence of Cytochrome P450 3A4 (P08684 whole entry): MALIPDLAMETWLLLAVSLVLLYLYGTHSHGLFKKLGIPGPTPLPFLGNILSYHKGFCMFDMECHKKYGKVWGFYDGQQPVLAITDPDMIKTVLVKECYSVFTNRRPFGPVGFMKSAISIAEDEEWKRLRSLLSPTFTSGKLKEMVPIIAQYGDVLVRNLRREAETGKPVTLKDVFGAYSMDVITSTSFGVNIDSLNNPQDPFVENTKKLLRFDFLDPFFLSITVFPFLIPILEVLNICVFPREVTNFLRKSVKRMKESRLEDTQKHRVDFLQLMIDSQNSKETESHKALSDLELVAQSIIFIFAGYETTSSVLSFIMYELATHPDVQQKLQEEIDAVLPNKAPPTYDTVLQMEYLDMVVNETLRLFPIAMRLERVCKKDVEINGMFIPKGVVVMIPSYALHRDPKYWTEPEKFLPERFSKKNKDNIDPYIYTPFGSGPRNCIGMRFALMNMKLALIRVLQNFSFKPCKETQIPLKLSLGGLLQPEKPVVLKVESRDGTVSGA
# Sequence of Cytochrome P450 2C9 (P11712 whole entry): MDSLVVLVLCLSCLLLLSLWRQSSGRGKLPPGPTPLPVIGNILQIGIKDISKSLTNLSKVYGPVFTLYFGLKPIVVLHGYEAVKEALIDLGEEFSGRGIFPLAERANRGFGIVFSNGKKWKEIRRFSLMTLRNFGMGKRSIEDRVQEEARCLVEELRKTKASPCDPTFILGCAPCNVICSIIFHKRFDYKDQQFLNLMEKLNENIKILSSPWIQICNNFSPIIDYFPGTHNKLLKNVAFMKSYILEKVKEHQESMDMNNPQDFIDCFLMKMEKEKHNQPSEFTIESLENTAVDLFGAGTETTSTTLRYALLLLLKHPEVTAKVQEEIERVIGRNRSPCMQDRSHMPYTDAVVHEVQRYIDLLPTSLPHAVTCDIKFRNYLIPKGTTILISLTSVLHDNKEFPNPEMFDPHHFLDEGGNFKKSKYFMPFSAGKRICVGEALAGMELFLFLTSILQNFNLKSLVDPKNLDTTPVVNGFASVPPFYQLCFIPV
# Sequence of Cytochrome P450 2D6 (P10635 whole entry): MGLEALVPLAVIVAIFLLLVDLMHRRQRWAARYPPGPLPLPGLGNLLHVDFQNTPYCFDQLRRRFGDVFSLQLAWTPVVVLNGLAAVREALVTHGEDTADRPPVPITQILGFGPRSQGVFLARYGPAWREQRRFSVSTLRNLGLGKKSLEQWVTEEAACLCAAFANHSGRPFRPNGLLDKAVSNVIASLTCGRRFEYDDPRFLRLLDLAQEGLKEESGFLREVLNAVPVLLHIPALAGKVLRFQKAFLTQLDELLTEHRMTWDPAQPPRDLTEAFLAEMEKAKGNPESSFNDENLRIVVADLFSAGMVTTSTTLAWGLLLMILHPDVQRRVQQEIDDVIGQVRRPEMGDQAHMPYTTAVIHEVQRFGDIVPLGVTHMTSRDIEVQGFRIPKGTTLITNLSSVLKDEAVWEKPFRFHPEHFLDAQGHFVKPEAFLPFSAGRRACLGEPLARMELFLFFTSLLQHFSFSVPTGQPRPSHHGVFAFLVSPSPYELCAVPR
smiles,measurement,setting,value
COCc1nnc(N2C[C@@H]3C[C@]3(c3ccc(F)cc3Cl)C2)n1-c1ccc(OC)nc1,Cp,[1],1379 ng/mL
same,Tmax,[2],0.67 h
same,ED,Rattus norvegicus [3],30 mg/kg
same,inhibition,Rattus norvegicus [3],Dose-dependent effect
same,selectivity ratio,[4],10
same,Activity,[5],Toxic
same,AUC(0-t) at 24 h,[6],16100 ng·h/mL
same,fraction unbound,[7],0.0166
same,Activity,[8],Non-Toxic
same,IC50,Oxytocin receptor,0.015 µM
same,IC50,Cytochrome P450 2C9,> 30 µM
same,Activity,[9],Non-Toxic
same,inhibition in vivo at 30 mg/kg,Rattus norvegicus [10],65%
same,Tmax,[11],0.75 h
same,AUC(0-t) at 24 h,[12],3830 ng·h/mL
same,AUC(0-t) at 24 h,[13],58700 ng·h/mL
same,logD,[14],2.86
same,clearance,[15],7.2 mL/min/kg
same,Ratio IC50,Homo sapiens,2500
same,IC50,Cytochrome P450 1A2,> 30 µM
same,solubility,[16],108 µM
same,MTD,[17],> 900 mg/kg
same,NOAEL,[17],300 mg/kg
same,IC50,Cytochrome P450 2C19,11 µM
same,Cmax,[18],3300 ng/mL
same,AUC(0-t) at 24 h,[19],1680 ng·h/mL
same,CLhep predicted,[20],20.3 mL/min/kg
same,fraction unbound,[21],0.0352
same,half-life,[22],3.24 h
same,Activity,[23],Non-Toxic
same,IC50,Cytochrome P450 2D6,> 30 µM
same,Tmax,[24],0.5 h
same,half-life,[25],3.38 h
same,Cmax,[26],350 ng/mL
same,Cmax,[27],13500 ng/mL
same,half-life,[28],2.23 h
same,IC50,Cytochrome P450 3A4,> 30 µM
same,CLhep predicted,[29],14.8 mL/min/kg
